SMILES strings stand for the structures.

The target in the first experiment is T1, Ephrin type-A receptor 4 (Homo sapiens, UniProt P54764). Nature of the experiment: Inhibition of his-tagged EPHA4-mediated poly(Glu,Tyr) phosphorylation at 200 uM after 75 mins using E4:Y1 as substrate by fluorescence assay.
T1 sequence (P54764 whole entry): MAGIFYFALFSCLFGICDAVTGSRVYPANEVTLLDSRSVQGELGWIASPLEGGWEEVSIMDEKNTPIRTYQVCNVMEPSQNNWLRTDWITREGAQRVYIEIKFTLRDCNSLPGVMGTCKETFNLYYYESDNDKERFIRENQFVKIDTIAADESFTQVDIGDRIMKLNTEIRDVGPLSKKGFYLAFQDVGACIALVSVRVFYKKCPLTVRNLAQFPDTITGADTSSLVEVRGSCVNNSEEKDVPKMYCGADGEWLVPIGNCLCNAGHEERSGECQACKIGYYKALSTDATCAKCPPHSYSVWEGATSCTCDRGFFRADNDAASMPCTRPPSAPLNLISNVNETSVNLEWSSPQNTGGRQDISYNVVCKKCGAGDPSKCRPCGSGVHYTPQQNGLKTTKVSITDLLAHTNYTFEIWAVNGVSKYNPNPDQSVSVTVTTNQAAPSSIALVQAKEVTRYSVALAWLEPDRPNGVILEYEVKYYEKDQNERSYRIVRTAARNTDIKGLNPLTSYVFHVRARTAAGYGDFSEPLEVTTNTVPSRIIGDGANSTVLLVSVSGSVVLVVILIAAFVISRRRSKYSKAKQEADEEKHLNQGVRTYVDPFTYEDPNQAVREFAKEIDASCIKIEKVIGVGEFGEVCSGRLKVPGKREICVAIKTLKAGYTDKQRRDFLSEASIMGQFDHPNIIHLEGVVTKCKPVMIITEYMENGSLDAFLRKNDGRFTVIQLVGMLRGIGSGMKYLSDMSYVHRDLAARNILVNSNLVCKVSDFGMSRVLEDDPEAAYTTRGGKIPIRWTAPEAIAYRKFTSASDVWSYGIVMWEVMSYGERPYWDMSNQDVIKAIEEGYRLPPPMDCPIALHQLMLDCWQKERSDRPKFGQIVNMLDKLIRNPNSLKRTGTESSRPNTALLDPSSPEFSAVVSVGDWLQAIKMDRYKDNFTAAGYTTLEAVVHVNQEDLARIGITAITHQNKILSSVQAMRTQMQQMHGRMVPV
By inhibition is commonly meant the change of the read-out against control, counted positive when it falls. Low values mean a response near the control, high ones a response far below the control. For the compound `CC1(C)Cc2c(c(-c3ccccc3)nc3[nH]nc(N)c23)CO1`, the inhibition came to 90%. In turn, `CC1(C)Cc2c(c(-c3ccccc3)nc3[nH]nc(N)c23)CS1` yielded an inhibition of 87%.

Compound `Cc1cc(C)c2c(NC(=O)c3ccccc3)n[nH]c2n1` came in with an inhibition of 10%. `CCN(CC)c1nc2[nH]nc(N)c2c2c1CN(C)CC2` yielded an inhibition of 5%.

In turn, `Cc1nc2[nH]nc(N)c2c2c1CSC(C)(C)C2` returned an inhibition of 70%. As to `CCCc1nc2[nH]nc(N)c2c2c1COC(C)(C)C2`, the inhibition was 77%.

Regarding `CC(C)c1nc2[nH]nc(N)c2c2c1COC(C)(C)C2`, the inhibition turned out to be 82%. `CN1CCc2c(c(NCc3ccccc3)nc3[nH]nc(N)c23)C1` registered an inhibition of 33%. Compound `CN1CCc2c(c(NCCO)nc3[nH]nc(N)c23)C1` yielded an inhibition of 0%.

Consider `Nc1n[nH]c2ncc3c(c12)CCCCCC3`, for which the inhibition turned out to be 80%.

`CN1CCc2c(c(N3CCOCC3)nc3[nH]nc(N)c23)C1` registered an inhibition of 0%. `CC1(C)Cc2c(c(-c3ccco3)[nH]c3nnc(N)c2-3)CO1` showed an inhibition of 75%.

A further experiment has as its target T1, Ephrin type-A receptor 4. Nature of the experiment: Inhibition of his-tagged EPHA4-mediated poly(Glu,Tyr) phosphorylation after 75 mins using E4:Y1 as substrate by fluorescence assay.
The term IC50 denotes the point on the concentration scale where inhibition reaches its midpoint. Lower therefore signals greater potency in that assay. The compound `Cc1ccccc1-c1nc2[nH]nc(N)c2c2c1CCCC2` came in with a concentration for half-maximal inhibition (IC50) of 2 µM. Compound `Nc1n[nH]c2nc(-c3ccccc3Cl)c3c(c12)CCCC3` showed an IC50 of 8.1 µM.

The target in a further experiment is T1, Ephrin type-A receptor 4. Nature of the experiment: Inhibition of his-tagged EPHA4-mediated poly(Glu,Tyr) phosphorylation at 500 uM after 75 mins using E4:Y1 as substrate by fluorescence assay.
For the compound `Nc1n[nH]c2ncc3c(c12)CCCC3`, the inhibition is 80%.
